Assay results taken from PubChem BioAssay (NCI).
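Briefly, cells in 96-well plates were exposed to five compound concentrations for 48 h, and endpoints were estimated by linear interpolation. GI50 = concentration required for 50% inhibition of growth. At the TGI there is no net growth.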

How the values were obtained:
Assay in all cases: NCI tumour cell line growth inhibition, 48 h; in the data active means GI50 below about 0.43 µM; inactive means the rest
[1] = test system: 786-0 renal
[2] = test system: A498 renal
[3] = test system: A549 NSCLC
[4] = test system: ACHN renal
[5] = test system: BT-549 breast
[6] = test system: CAKI-1 renal
[7] = test system: CCRF-CEM leukemia
[8] = test system: COLO 205 colon
[9] = test system: DU-145 prostate
[10] = test system: EKVX NSCLC
[11] = test system: HCC-2998 colon
[12] = test system: HCT-116 colon
[13] = test system: HCT-15 colon
[14] = test system: HL-60(TB) leukemia
[15] = test system: HOP-62 NSCLC
[16] = test system: HOP-92 NSCLC
[17] = test system: HS 578T breast
[18] = test system: HT29 colon
[19] = test system: IGROV1 ovarian
[20] = test system: K-562 leukemia
[21] = test system: KM12 colon
[22] = test system: LOX IMVI melanoma
[23] = test system: M14 melanoma
[24] = test system: MALME-3M melanoma
[25] = test system: MCF7 breast
[26] = test system: MDA-MB-231 breast
[27] = test system: MDA-MB-435
[28] = test system: MOLT-4 leukemia
[29] = test system: NCI-H226 lung
[30] = test system: NCI-H23 lung
[31] = test system: NCI-H460 lung
[32] = test system: NCI-H522 lung
[33] = test system: NCI/ADR-RES ovarian
[34] = test system: OVCAR-4 ovarian
[35] = test system: OVCAR-5 ovarian
[36] = test system: OVCAR-8 ovarian
[37] = test system: PC-3 prostate
[38] = test system: RXF 393 renal
[39] = test system: SF-268 CNS
[40] = test system: SF-295 CNS
[41] = test system: SF-539 CNS
[42] = test system: SK-MEL-2 melanoma
[43] = test system: SK-MEL-28 melanoma
[44] = test system: SK-MEL-5 melanoma
[45] = test system: SK-OV-3 ovarian
[46] = test system: SN12C renal
[47] = test system: SNB-19 CNS
[48] = test system: SNB-75 CNS
[49] = test system: SR leukemia
[50] = test system: SW-620 colon
[51] = test system: T-47D breast
[52] = test system: TK-10 renal
[53] = test system: U251 CNS
[54] = test system: UACC-257 melanoma
[55] = test system: UACC-62 melanoma
[56] = test system: UO-31 renal

CCn1c(SCC(=O)Nc2cccc(C(=O)/C=C/c3cc(OC)c(OC)c(OC)c3)c2)nc2ccccc2c1=O
9.29 µM: TGI [32]
6.61 µM: TGI [4]
5.55 µM: TGI [29]
4.49 µM: TGI [11]
9.62 µM: TGI [13]
7.05 µM: TGI [50]
5.65 µM: TGI [35]
5.77 µM: TGI [41]
3.92 µM: TGI [1]
30.8 µM: TGI [3]
15.3 µM: TGI [42]
> 100 µM: TGI [6] | TGI [7] | TGI [14] | TGI [16] | TGI [17] | TGI [20] | TGI [23] | TGI [24] | TGI [25] | TGI [26] | TGI [28] | TGI [34] | TGI [36] | TGI [37] | TGI [39] | TGI [43] | TGI [46] | TGI [47] | TGI [48] | TGI [49] | TGI [51] | TGI [52] | TGI [54]
4.31 µM: TGI [19]
6.46 µM: TGI [53]
11.7 µM: TGI [31]
15.4 µM: TGI [33]
20.6 µM: TGI [40]
89.1 µM: TGI [8]
2.63 µM: TGI [22]
6.12 µM: TGI [9]
6.42 µM: TGI [56]
56.7 µM: TGI [10]
76.3 µM: TGI [45]
9.31 µM: TGI [5]
32 µM: TGI [44]
inactive: GI50 [1] 1.94 µM | GI50 [2] 2.15 µM | GI50 [3] 3.05 µM | GI50 [4] 2.29 µM | GI50 [5] 2.66 µM | GI50 [6] 3.75 µM | GI50 [7] 2.57 µM | GI50 [8] 3.91 µM | GI50 [9] 2.36 µM | GI50 [10] 4.26 µM | GI50 [11] 2 µM | GI50 [12] 1.73 µM | GI50 [13] 2.27 µM | GI50 [14] 3.38 µM | GI50 [15] 2.46 µM | GI50 [16] 3.17 µM | GI50 [17] 3.64 µM | GI50 [18] 2.07 µM | GI50 [19] 1.8 µM | GI50 [20] 3.19 µM | GI50 [21] 1.89 µM | GI50 [22] 1.18 µM | GI50 [23] 2.9 µM | GI50 [24] 6.52 µM | GI50 [25] 2.3 µM | GI50 [26] 5.26 µM | GI50 [27] 3.12 µM | GI50 [28] 3.55 µM | GI50 [29] 1.91 µM | GI50 [30] 2.63 µM | GI50 [31] 2.6 µM | GI50 [32] 2.86 µM | GI50 [33] 2.89 µM | GI50 [34] 5.52 µM | GI50 [35] 2.36 µM | GI50 [36] 3.16 µM | GI50 [37] 5.09 µM | GI50 [38] 1.56 µM | GI50 [39] 4.13 µM | GI50 [40] 4.1 µM | GI50 [41] 2.3 µM | GI50 [42] 3.3 µM | GI50 [43] 3.66 µM | GI50 [44] 9.79 µM | GI50 [45] 16.2 µM | GI50 [46] 3.86 µM | GI50 [47] 3.89 µM | GI50 [48] 2.65 µM | GI50 [49] 1.29 µM | GI50 [50] 2.48 µM | GI50 [51] 5.08 µM | GI50 [52] 7.08 µM | GI50 [53] 2.35 µM | GI50 [54] 12.5 µM | GI50 [55] 4.43 µM | GI50 [56] 1.7 µM
3.75 µM: TGI [12]
48.2 µM: TGI [27]
76.7 µM: TGI [55]
4.52 µM: TGI [21]
8.58 µM: TGI [30]
4.39 µM: TGI [18]
7.82 µM: TGI [38]
6.78 µM: TGI [15]
9.11 µM: TGI [2]
